Measurements from patent US20240189435A1, “NOVEL PEPTIDE-OLIGONUCLEOTIDE CONJUGATE AND USE THEREOF” (KOREA INSTITUTE OF SCIENCE AND TECHNOLOGY, priority 2021, published 2024).

Tests used:
IL-12 = experiment: RT-PCR of inflammatory cytokines in M2ϕ, IL-12; format: cell-based; settings: 300 nM, 18 hours
Procedure: (§1) Real-time polymerase chain reaction (RT-PCR) was performed to determine whether or not treatment with Pep-21 inhibited the expression of miRNA-21. M2ϕ was treated with 300 nM of Pep-21 for 18 hours, RNA was isolated and then real-time polymerase chain reaction (RT-PCR) was performed.
(§2) In addition, the expression level of inflammatory cytokines was determined through RT-PCR.

CD31 = CD31 immunofluorescence of excised tumor tissue; format: in vivo, mice; settings: 21 days, compared to the control group
Procedure: (§3) 21 days after the animal test, the excised tumor tissue was analyzed by immunofluorescence.
In addition, immunofluorescence was performed using CD31, an angiogenesis marker.

[1] = test system: M2ϕ (M2 bone marrow-derived macrophages); experiment: Cellular uptake in M2 bone marrow-derived macrophages, fluorescence microscopy; format: cell-based; settings: 300 nM Cy5-labeled, 6 hours, compared to Free-21
TNF-α = experiment: RT-PCR of inflammatory cytokines in M2ϕ, TNF-α; format: cell-based; settings: 300 nM, 18 hours
Procedure: as §1, §2

B16 melanoma cells = experiment: Cellular uptake in B16 melanoma cells, fluorescence microscopy; format: cell-based; settings: B16, 300 nM Cy5-labeled, 6 hours
Procedure: Melanoma cells (B16) were treated with 300 nM miRNA-21 labeled with Cy5 fluorescent dye for 6 hours and the degree of intracellular uptake was then observed with a fluorescence microscope.

miRNA-21 [2] = experiment: RT-PCR of miRNA-21 in M2ϕ; format: cell-based; settings: 300 nM, 18 hours
Procedure: as §1

miRNA-21 [3] = experiment: Agarose gel electrophoresis of binding to miRNA-21
Procedure: The binding affinity of miRNA-21 and Pep-21 was evaluated through agarose gel electrophoresis, compared to Free-21.
(§4) Synthetic Pep-21 (10 pmole) was reacted with miRNA-21 and negative control miRNA in 100 μL of PBS under the same conditions as above, in other words, at 37° C. for 1 hour and then whether or not pep-21 recognizes and binds to a specific sequence of miRNA-21 was identified by agarose gel electrophoresis.

negative control miRNA = experiment: Agarose gel electrophoresis of sequence specificity with negative control miRNA; format: binding; settings: 10 pmole in 100 μL PBS, 37° C., 1 hour
Procedure: as §4
Whether or not Pep-21 recognizes and binds to a specific sequence to miRNA-21 was determined using the negative control miRNA.

[4] = test system: tissue inhibitor of metalloproteinase-3 (TIMP3); experiment: Western blot in B16 cells, TIMP3; format: cell-based; settings: 300 nM, serum free media, 24 hours
Procedure: (§5) B16 cells were treated with 300 nM Pep-21 in serum free media for 24 hours, protein assay was performed and western blot was performed.
(§6) miRNA-21 related markers: programmed cell death 4 (PDCD4), matrix metalloproteinase-2 (MMP2), tissue inhibitor of metalloproteinase-3 (TIMP3)

iNOS (M1 marker) = experiment: Immunofluorescence of tumor-associated macrophages, iNOS; format: in vivo, mice; settings: tumor-associated macrophages in excised tumor tissue, 21 days
Procedure: (§7) 21 days after the animal test, tumor-associated macrophages infiltrating the excised tumor tissue were analyzed by immunofluorescence (IF).

[5] = test system: B16 melanoma tumor tissue; experiment: TUNEL assay on excised tumor tissue; format: in vivo, mice; settings: 21 days, compared to the control group
Procedure: as §3
TUNEL assay was performed on tumor tissue to determine the degree of apoptosis.

miRNA-21 [6] = experiment: RT-PCR of miRNA-21 in treated cancer tissue; format: in vivo, mice; settings: B16 tumor tissue, compared to the control group
Text: (§8) On day 12 after tumor inoculation (tumor size of about 70 mm^3), PBS, peptide, Free-21, and Pep-21 were intratumorally injected three times at intervals of three days.

B16 melanoma = experiment: Anti-tumor effect in tumor animal model; format: in vivo, mice; settings: 500 pmole intratumorally, 3 times at 3-day intervals, from day 12 after tumor inoculation
Text: as §8

B16 cells [7] = experiment: Cytotoxicity in B16 cells, cell counting Kit-8 (CCK-8); format: cell-based; settings: 300 nM, 24 hours
Procedure: (2) To determine the cytotoxicity of this substance, B16 cells were treated with 300 nM Pep-21 for 24 hours and the cytotoxicity was confirmed using cell counting Kit-8 (CCK-8).

[8] = test system: matrix metalloproteinase-2 (MMP2); experiment: Western blot in B16 cells, MMP2; format: cell-based; settings: 300 nM, serum free media, 24 hours
Procedure: as §5, §6

Arginasel (M2 marker) = experiment: Immunofluorescence of tumor-associated macrophages, Arginase1; format: in vivo, mice; settings: tumor-associated macrophages in excised tumor tissue, 21 days
Procedure: as §7

B16 cells [9] = experiment: Scratch-wound healing assay in B16 cells; format: cell-based; settings: 300 nM in serum free media 48 hours, observed 72 hours after wounding, compared to the control group
Procedure: A scratch-wound healing assay was performed in order to analyze cell migration.
B16 cells were wounded using a 200 μL pipette tip, treated with 300 nM Pep-21 in serum free media for 48 hours, and then stabilized in fresh growth media for 24 hours.

miRNA-21 [10] = experiment: RT-PCR of miRNA-21 in B16 cells; format: cell-based; settings: 300 nM, 18 hours
Procedure: (1) Real-time polymerase chain reaction (RT-PCR) was performed to determine whether or not miRNA-21 expression was inhibited by treatment with Pep-21. B16 cells were treated with 300 nM of Pep-21 for 18 hours, RNA was isolated, cDNA was synthesized, and then real-time polymerase chain reaction (RT-PCR) was performed using miRNA-21 primer.

[11] = test system: programmed cell death 4 (PDCD4); experiment: Western blot in B16 cells, PDCD4; format: cell-based; settings: 300 nM, serum free media, 24 hours
Procedure: as §5, §6

band shift upon reaction with miRNA-21 (miRNA-21 [3]; 10 pmole in 100 μL PBS, 37° C., 1 hour): a band shift was observed
sequence-specific recognition of miRNA-21 versus negative control miRNA (miRNA-21 [3]; conclusion from the band shift test): selectively binds to miRNA-21
Substance: Pep-21: Azide PDL1-binding peptide (N3-NYSKPTDRQYHF, d-form) click-conjugated to DBCO-anti-miR-21 DNA 5′-TCAACATCAGTCTGATAAGCTA-3′
mRNA expression of IL-12 (IL-12): promoted mRNA expression
CD31 (angiogenesis marker) expression (CD31): decreased compared to the control group
degree of uptake into cells [1]: successfully delivered anti-21 to the cytoplasm
mRNA expression of TNF-α (TNF-α): promoted mRNA expression
degree of intracellular uptake (B16 melanoma cells): greatly advantageous in intracellular delivery
cellular uptake when blocking with PD-L1 antibody (B16 melanoma cells; PD-L1 antibody blocking): cellular uptake decreased
expression of miRNA-21 (RT-PCR) (miRNA-21 [2]): inhibited expression of miRNA-21
binding affinity to miRNA-21 (gel electrophoresis) (miRNA-21 [3]; 10 pmole annealed with miR-21 (0, 0.25, 0.5, 0.75 and 1) in 100 μL PBS, 37° C., 1 hour): binding affinity increased as the concentration increased
band shift upon reaction with Neg-miRNA (negative control miRNA): no band shift was observed
Timp3 expression (western blot) [4]: increased
iNOS (M1 marker) by IF (iNOS (M1 marker)): increased
degree of apoptosis (TUNEL) [5]: increased compared to the control group
amount of miRNA-21 expressed in cancer tissue (RT-PCR) (miRNA-21 [6]): reduced compared to the control group
cancer growth (B16 melanoma): inhibit cancer growth
cytotoxicity (CCK-8) (B16 cells [7]): almost no cytotoxicity
MMP2 expression (western blot) [8]: decreased
Arginasel (M2 marker) by IF (Arginasel (M2 marker)): decreased
cancer cell migration (B16 cells [9]): further inhibited
expression of miRNA-21 (RT-PCR) (miRNA-21 [10]): decreased the expression of miRNA-21
PDCD4 expression (western blot) [11]: increased
